Measured values published in patent US8420630B2 (Boehringer Ingelheim Pharma GmbH & Co. KG, priority 2001, dated 2013).

Target: T1, CDK1/cyclinB1 (Homo sapiens, UniProt P06493)
T1 construct: made in house; host or cells: High Five insect cells (Trichoplusia ni), baculovirus coinfection
Experiment: Cyclin B1-CDK1 kinase inhibition test
Format: biochemical
Conditions: CDK1 tests (Example 13); recombinant cyclin B1/CDK1, substrate histone H1; read-out: CDK1/cyclinB1 IC50 value
Protocol: CDK4) were cloned by standard methods using RT-PCR, and cloned into a transfer vector (cyclin in pAcG2T made by Pharmingen, CDKs in p2Bac made by Invitrogen) for the baculovirus system. […] After thawing the cells were resuspended in lysing buffer (50 mM HEPES pH 7.5, 10 mM MgCl2, 1 mM DTT, 5 μg/ml leupeptin, 5 μg/ml aprotinin, 100 μM NaF, 100 μM PMSF, 10 mM β-glycerolphosphate, 100 μM Na3VO4, 30 mM nitrophenylphosphate, 17.5 ml of lysing buffer per 10^8 cells) and incubated on ice for 30 min. […] Cyclin D1-CDK4 was purified by means of a GST-tag on cyclin D1 and then using glutathione beads (total protein about 0.2 mg/ml). All the kinase tests were carried out in 96-well microtitre plates (Greiner PS) in a final volume of 60 μl. […] As a negative control the kinase reaction was carried out in the absence of the substrate histone H1. As a positive control the kinase reaction was carried out in the absence of a test substance. As an internal control 30 μM and 300 μM (final concentration) of the kinase inhibitor olomoucin (Alexis) were used. […] The kinase reaction is started by the addition of 10 μl of ATP mix (0.045 mM ATP, 0.5 μCi ^33P-ATP in kinase buffer) and incubated for 30 min at 30° C. and 600 rpm in a shaking incubator. After incubation the plates were placed on ice and the proteins were precipitated by the addition of 125 μl of ice-cold 5% trichloroacetic acid. After 15 min on ice the precipitates were transferred onto Packard Unifilter 96 GF/B plates with the Packard Harvester System, and collected by vacuum filtration. The precipitates were washed 4 times with dist. H2O at ambient temperature. The filter plates were then dried at 60° C. and 50 μl of scintillation liquid were added to each well (Ultima Gold, Packard). The plate was sealed up with Sealing Tape and after 1 h measured in a scintillation measuring apparatus (Micro Beta made by Wallac).

T1 sequence (P06493 whole entry): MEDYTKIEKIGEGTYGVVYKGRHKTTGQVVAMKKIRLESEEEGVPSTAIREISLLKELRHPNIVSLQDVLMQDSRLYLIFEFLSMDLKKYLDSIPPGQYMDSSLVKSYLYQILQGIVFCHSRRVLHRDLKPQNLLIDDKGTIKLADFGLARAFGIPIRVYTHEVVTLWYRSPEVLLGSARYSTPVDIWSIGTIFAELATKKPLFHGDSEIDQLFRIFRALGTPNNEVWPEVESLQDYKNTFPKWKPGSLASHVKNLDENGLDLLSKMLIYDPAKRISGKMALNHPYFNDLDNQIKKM
T1 sequence (P14635 whole entry partner): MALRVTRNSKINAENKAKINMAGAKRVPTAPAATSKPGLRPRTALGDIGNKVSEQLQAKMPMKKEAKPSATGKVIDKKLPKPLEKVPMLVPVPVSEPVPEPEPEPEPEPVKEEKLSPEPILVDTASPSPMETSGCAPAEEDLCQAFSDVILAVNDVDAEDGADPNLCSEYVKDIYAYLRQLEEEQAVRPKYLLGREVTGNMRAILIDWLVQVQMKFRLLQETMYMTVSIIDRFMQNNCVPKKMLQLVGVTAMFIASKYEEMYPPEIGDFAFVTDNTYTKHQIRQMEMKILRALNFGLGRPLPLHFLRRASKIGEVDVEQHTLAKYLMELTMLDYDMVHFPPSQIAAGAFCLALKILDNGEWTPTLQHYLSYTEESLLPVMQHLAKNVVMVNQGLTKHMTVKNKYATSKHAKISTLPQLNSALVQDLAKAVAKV

| IC50 [nM] | SMILES |
| --- | --- |
| < 100 | O=S(=O)(c1ccc(Nc2ncc(C(F)(F)F)c(N3CCc4nc[nH]c4C3)n2)cc1)N1CCOCC1 [Example 1(695), [4-(Morpholin-4-sulphonyl)-phenyl]-[4-(3,4,6,7-tetrahydro-imidazo[4,5-5]pyridin-5-yl)-5-trifluoromethyl-pyrimidin-2-yl]-amine] |
| < 100 | NC(=O)CCNc1nc(Nc2ccc(Cl)c(Cl)c2)ncc1C(F)(F)F [Example 1(025), 2-(3,4-dichloro-phenylamino)-4-(2-aminocarbonyl-1-ethylamino)-5-trifluoromethyl-pyrimidine] |
| < 100 | O=C(O)CCc1ccc(Nc2ncc([N+](=O)[O-])c(N3CCc4[nH]cnc4C3)n2)cc1 [Example 1(112), 2-(4-(2-carboxy-1-ethyl)-phenylamino)-4-(1,4,6,7-tetrahydro-imidazo[4,5-c]pyridin-5-yl)-5-nitro-pyrimidine] |
| < 100 | CN(C)S(=O)(=O)c1ccc(Nc2ncc(C(F)(F)F)c(NCCCN3CCCC3=O)n2)cc1 [Example 2(041), N,N-Dimethyl-4-{4-[3-(2-oxo-pyrrolidin-1-yl)-propylamino]-5-trifluoromethyl-pyrimidin-2-ylamino}-phenylsulphonamide] |
| < 100 | CN(C)S(=O)(=O)c1ccc(Nc2ncc(C(F)(F)F)c(NCCN3CCCC3=O)n2)cc1 [Example 1(683), N,N-dimethyl-4-{4-[2-(2-oxo-pyrrolidin-1-yl)-ethylamino]-5-trifluoromethyl-pyrimidin-2-ylamino}-phenylsulphonamide] |
| < 100 | NC1CCCC(Nc2nc(Nc3ccc(Cl)cc3)ncc2[N+](=O)[O-])C1 (centres unmarked) [Example 1(034), 2-(4-chloro-phenylamino)-4-(3-amino-cyclohexylamino)-5-nitro-pyrimidine] |
| < 100 | CC(=O)NCCNc1nc(Nc2ccc(S(=O)(=O)N3CCOCC3)cc2)ncc1C(F)(F)F [Example 2(057), N-(2-{2-[4-(Morpholin-4-sulphonyl)-phenylamino]-5-trifluoromethyl-pyrimidin-4-ylamino}-ethyl)-acetamide] |
| < 100 | CN(C)S(=O)(=O)c1ccc(Nc2ncc(C(F)(F)F)c(N3CCc4nc[nH]c4C3)n2)cc1 [Example 1(694), N,N-dimethyl-4-[4-(3,4,6,7-tetrahydro-imidazo[4,5-c]pyridin-5-yl)-5-trifluoromethyl-pyrimidin-2-ylamino]-phenylsulphonamide] |
| < 100 | FC(F)(F)c1cnc(Nc2ccc3ccccc3c2)nc1N1CCc2[nH]cnc2C1 [Example 1(152), 2-(2-naphthylamino)-4-(1,4,6,7-tetrahydro-imidazo[4,5-c]pyridin-5-yl)-5-trifluoromethyl-pyrimidine] |
| < 100 | NCCCNc1nc(Nc2ccc(C(N)=O)cc2)ncc1C(F)(F)F [Example 1(693), 4-[4-(3-aminopropylamino)-5-trifluoromethyl-pyrimidin-2-ylamino]benzamide] |
| < 100 | NC1CCC(Nc2nc(Nc3ccc(Cl)c(Cl)c3)ncc2C(F)(F)F)CC1 (centres unmarked) [Example 1(109), 2-(3,4-dichlorophenylamino)-4-(4-amino-cyclohexylamino)-5-trifluoromethyl-pyrimidine] |
| < 100 | Nc1c(Cl)cc(Nc2ncc([N+](=O)[O-])c(N3CCc4[nH]cnc4C3)n2)cc1Cl [Example 1(113), 2-(4-amino-3,5-dichlorophenylamino)-4-(1,4,6,7-tetrahydro-imidazo[4,5-c]pyridin-5-yl)-5-nitro-pyrimidine] |
| < 100 | CC(=O)NCCNc1nc(Nc2ccc3cn[nH]c3c2)ncc1C(F)(F)F [Example 2(044), N-{2-[2-(1H-Indazol-6-ylamino)-5-trifluoromethyl-pyrimidin-4-ylamino]-ethyl}-acetamide] |
| < 100 | CC(C)CC(=O)NCCCNc1nc(Nc2ccc3cnn(C)c3c2)ncc1C(F)(F)F [Example 7(015), 3-methyl-N-{3-[2-(1-methyl-1H-indazol-6-ylamino)-5-trifluoromethyl-pyrimidin-4-ylamino]-propyl}-butyramide] |
| < 100 | O=C1CCCN1CCCNc1nc(Nc2ccc(Cl)cc2)ncc1C(F)(F)F [Example 1(011), 2-(4-chlorophenylamino)-4-(3-(2-oxo-pyrrolidin-1-yl)-propyl-1-amino)-5-trifluoromethyl-pyrimidine] |
| < 100 | CC(=O)NCCNc1nc(Nc2ccc(C(=O)O)cc2)ncc1C(F)(F)F [Example 9(001), 4-[4-(2-acetylamino-ethylamino)-5-trifluoromethyl-pyrimidin-2-ylamino]-benzoic acid] |

| IC50 [nM] | SMILES |
| --- | --- |
| < 100 | NS(=O)(=O)c1ccc(Nc2ncc([N+](=O)[O-])c(NCCCN3CCCC3=O)n2)cc1 [Example 1(008), 2-(4-aminosulphonyl-phenylamino)-4-(3-(2-oxo-pyrrolidin-1-yl)-propyl-1-amino)-5-nitro-pyrimidine] |
| < 100 | O=C(O)c1ccc(Nc2ncc(C(F)(F)F)c(NCCCN3CCCC3=O)n2)cc1 [Example 1(021), 2-(4-carboxy-phenylamino)-4-(3-(2-oxo-pyrrolidin-1-yl)-propyl-1-amino)-5-trifluoromethyl-pyrimidine] |
| < 100 | CCN(CC)C(=O)NCCCNc1nc(Nc2ccc3cnn(C)c3c2)ncc1C(F)(F)F [Example 7(032), 1,1-diethyl-3-{3-[2-(1-methyl-1H-indazol-6-ylamino)-5-trifluoromethyl-pyrimidin-4-ylamino]-propyl}-urea] |
| < 100 | CS(=O)(=O)NCCNc1nc(Nc2ccc(Cl)c(Cl)c2)ncc1C(F)(F)F [Example 7(001), N-(2-[2-(3,4-dichloro-phenylamino)-5-trifluoromethyl-pyrimidin-4-ylamino]-ethyl)-methanesulphonamide] |
| < 100 | CN(C)S(=O)(=O)c1ccc(Nc2ncc(Cl)c(N3CCc4[nH]cnc4C3)n2)cc1 [Example 2(136), 4-[5-Chloro-4-(1,4,6,7-tetrahydro-imidazo[4,5-c]pyridin-5-yl)-pyrimidin-2-ylamino]-N,N-dimethyl-phenylsulphonamide] |
| < 100 | CN1CCC2(CCN(c3nc(Nc4ccc(Cl)c(Cl)c4)ncc3C(F)(F)F)C2)C1 (centres unmarked) [Example 1(117), 2-(3,4-dichlorophenylamino)-4-(7-methyl-2,7-diaza-spiro[4.4]non-2-yl)-5-trifluoromethyl-pyrimidine] |
| < 100 | CC(=O)NCCNc1nc(Nc2cccc(Br)c2)ncc1C(F)(F)F [Example 2(012), 2-(3-bromo-phenylamino)-4-(2-acetylamino-ethylamino)-5-trifluoromethyl-pyrimidine] |
| < 100 | CC(=O)NCCNc1nc(Nc2ccc(Br)cc2)ncc1C(F)(F)F [Example 2(007), 2-(4-bromophenylamino)-4-(2-acetylamino-ethylamino)-5-trifluoromethyl-pyrimidine] |
| < 100 | CC(=O)NCC1CCCN(c2nc(Nc3ccc(Cl)c(Cl)c3)ncc2C(F)(F)F)C1 (centres unmarked) [Example 1(040), 2-(3,4-dichloro-phenylamino)-4-(3-acetylaminomethyl-piperidin-1-yl)-5-trifluoromethyl-pyrimidine] |
| < 100 | O=[N+]([O-])c1ccccc1CNc1nc(Nc2ccc(Cl)c(Cl)c2)ncc1C(F)(F)F [Example 1(016), 2-(3,4-dichloro-phenylamino)-4-(2-nitrobenzylamino)-5-trifluoromethyl-pyrimidine] |
| < 100 | CC(=O)NCCNc1nc(Nc2ccc(S(=O)(=O)N3CCCNCC3)cc2)ncc1C(F)(F)F [Example 2(060), N-(2-{2-[4-(Perhydro-1,4-diazepin-1-sulphonyl)-phenylamino]-5-trifluoromethyl-pyrimidin-4-ylamino}-ethyl)-acetamide] |
| < 100 | O=C1CCCN1CCCNc1nc(Nc2ccc3ccccc3c2)ncc1C(F)(F)F [Example 1(003), 2-(2-naphthylamino)-4-(3-(2-oxo-pyrrolidin-1-yl)-propyl-1-amino)-5-trifluoromethyl-pyrimidine] |
| < 100 | NCCCNc1nc(Nc2cccc(Br)c2)ncc1C(F)(F)F [Example 1(024), 2-(3-bromo-phenylamino)-4-(3-amino-propylamino)-5-trifluoromethyl-pyrimidine] |
| < 100 | FC(F)(F)c1cnc(Nc2ccccc2)nc1N1CCc2[nH]cnc2C1 [Example 1(118), 2-phenylamino-4-(1,4,6,7-tetrahydro-imidazo[4,5-c]pyridin-5-yl)-5-trifluoromethyl-pyrimidine] |
| < 100 | CC(=O)NCCCNc1nc(Nc2ccc(Cl)c(Cl)c2)ncc1C(F)(F)F [Example 7(010), N-(3-[2-(3,4-dichloro-phenylamino)-5-trifluoromethyl-pyrimidin-4-ylamino]-propyl)-acetamide] |
| < 100 | CC(=O)NCCNc1nc(Nc2ccc(NS(C)(=O)=O)cc2)ncc1C(F)(F)F [Example 10(014), N-(2-[2-(4-methanesulphonylamido-phenylamino)-5-trifluoromethyl-pyrimidin-4-ylamino]-ethyl)-acetamide] |
